From patent publication US9695155B2, “Herbicidal substituted pyrimidinyloxy benzene compounds” (E. I. DU PONT DE NEMOURS AND COMPANY, priority 2013, dated 2017)

How the values were obtained:
bermudagrass [1] = assay: Test C preemergence; format: in vivo, Cynodon dactylon; details: for Bermudagrass plant response rating: preemergence, scale 0 (no effect) to 100 (complete control); for Plant response rating, Bermudagrass: Preemergence, 31 g ai/ha, scale 0 to 100, 0 no effect, 100 complete control
From the text: (§1) Seeds of plant species selected from blackgrass (Alopecurus myosuroides), Italian ryegrass (Lolium multiflorum), wheat, winter (winter wheat, Triticum aestivum), galium (catchweed bedstraw, Galium aparine), corn (Zea mays), large (Lg) crabgrass (Digitaria sanguinalis), giant foxtail (Setaria faberii), johnsongrass (Sorghum halepense), lambsquarters (Chenopodium album), morningglory (Ipomoea coccinea), yellow nutsedge (Cyperus esculentus), pigweed (Amaranthus retroflexus), ragweed (common ragweed, Ambrosia elatior), soybean (Glycine max), barnyardgrass (Echinochloa crus-galli), oilseed rape (Brassica napus), waterhemp (common waterhemp, Amaranthus rudis), kochia (Kochia scoparia), wild oat (Avena fatua), surinam grass (Brachiaria decumbens), foxtail, green (green foxtail, Setaria viridis), goosegrass (Eleusine indica), bromegrass, downy (downy bromegrass, Bromus tectorum), nightshade (eastern black nightshade, Solanum ptycanthum), cocklebur (common cocklebur, Xanthium strumarium), cupgrass, woolly (woolly cupgrass, Eriochloa villosa), bermudagrass (Cynodon dactylon), sunflower, (common oilseed sunflower, Helianthus annuus), Russian thistle (Salsola kali), and velvetleaf (Abutilon theophrasti) were planted into a blend of loam soil and sand and treated preemergence with test chemicals formulated in a non-phytotoxic solvent mixture which included a surfactant.
(§2) At the same time, plants selected from these crop and weed species and also barley, winter (winter barley, Hordeum vulgare), windgrass (Apera spica-venti), chickweed (common chickweed, Stellaria media), deadnettle (henbit deadnettle, Lamium amplexicaule), and canarygrass (littleseed canarygrass, Phalaris minor) were planted in pots containing Redi-Earth® planting medium (Scotts Company, 14111 Scottslawn Road, Marysville, Ohio 43041) comprising spaghnum peat moss, vermiculite, wetting agent and starter nutrients and treated with postemergence applications of test chemicals formulated in the same manner. Plants ranged in height from 2 to 18 cm (1- to 4-leaf stage) for postemergence treatments. Treated plants and controls were maintained in a greenhouse for 13 to 15 days, after which time all species were compared to controls and visually evaluated. Plant response ratings, summarized in Table C, are based on a scale of 0 to 100 where 0 is no effect and 100 is complete control. A dash (-) response means no test result.

deadnettle = assay: Test C postemergence; format: in vivo, Lamium amplexicaule; details: for Plant response rating (0 to 100), Deadnettle: postemergence; for Plant response rating, Deadnettle: Postemergence, scale 0 to 100 (0 no effect, 100 complete control)
From the text: as §1, §2

cupgrass, woolly [2] = assay: Test C postemergence; format: in vivo, Eriochloa villosa; details: for Plant response rating (0 to 100), Cupgrass, Woolly: postemergence; for Plant response rating, Cupgrass, Woolly: Postemergence, scale 0 to 100 (0 no effect, 100 complete control)
From the text: as §1, §2

goosegrass = assay: Test C preemergence; format: in vivo, Eleusine indica; details: for Goosegrass plant response rating: preemergence, scale 0 (no effect) to 100 (complete control); for Plant response rating, Goosegrass: Preemergence, 31 g ai/ha, scale 0 to 100, 0 no effect, 100 complete control
From the text: as §1, §2

bermudagrass [3] = assay: Test C postemergence; format: in vivo, Cynodon dactylon; details: for Plant response rating (0 to 100), Bermudagrass: postemergence; for Plant response rating, Bermudagrass: Postemergence, scale 0 to 100 (0 no effect, 100 complete control)
From the text: as §1, §2

foxtail, green = assay: Test C preemergence; format: in vivo, Setaria viridis; details: for Foxtail, Green plant response rating: preemergence, scale 0 (no effect) to 100 (complete control); for Plant response rating, Foxtail, Green: Preemergence, 31 g ai/ha, scale 0 to 100, 0 no effect, 100 complete control
From the text: as §1, §2

cupgrass, woolly [4] = assay: Test C preemergence; format: in vivo, Eriochloa villosa; details: for Cupgrass, Woolly plant response rating: preemergence, scale 0 (no effect) to 100 (complete control); for Plant response rating, Cupgrass, Woolly: Preemergence, 31 g ai/ha, scale 0 to 100, 0 no effect, 100 complete control
From the text: as §1, §2

cocklebur = assay: Test C preemergence; format: in vivo, Xanthium strumarium; details: for Cocklebur plant response rating: preemergence, scale 0 (no effect) to 100 (complete control); for Plant response rating, Cocklebur: Preemergence, 31 g ai/ha, scale 0 to 100, 0 no effect, 100 complete control
From the text: as §1, §2

surinam grass = assay: Test C preemergence; format: in vivo, Brachiaria decumbens; details: for Surinam Grass plant response rating: preemergence, scale 0 (no effect) to 100 (complete control); for Plant response rating, Surinam Grass: Preemergence, 31 g ai/ha, scale 0 to 100, 0 no effect, 100 complete control
From the text: as §1, §2

smartweed = assay: Test E preemergence; format: in vivo, ladysthumb smartweed; details: for Smartweed plant response rating: scale 0 to 100 (0 no effect, 100 complete control); for Plant response rating, Smartweed: scale 0 to 100, 0 no effect, 100 complete control
From the text: Seeds of plant species selected from corn (Zea mays), soybean (Glycine max), velvetleaf (Abutilon theophrasti), lambsquarters (Chenopodium album), wild poinsettia (Euphorbia heterophylla), palmer pigweed (Amaranthus palmeri), waterhemp (common waterhemp, Amaranthus rudis), surinam grass (Brachiaria decumbens), large (Lg) crabgrass (Digitaria sanguinalis), Brazilian crabgrass (Digitaria horizontalis), fall panicum (Panicum dichotomiflorum), giant foxtail (Setaria faberii), green foxtail (Setaria viridis), goosegrass (Eleusine indica), johnsongrass (Sorghum halepense), ragweed (common ragweed, Ambrosia elatior), barnyardgrass (Echinochloa crus-galli), sandbur (southern sandbur, Cenchrus echinatus), arrowleaf sida (Sida rhombifolia), Italian ryegrass (Lolium multiflorum), dayflower (Virginia (VA) dayflower, Commelina virginica), field bindweed (Convolvulus arvensis), morningglory (Ipomoea coccinea), nightshade (eastern black nightshade, Solanum ptycanthum), kochia (Kochia scoparia), yellow nutsedge (Cyperus esculentus), cocklebur (common cocklebur, Xanthium strumarium), smartweed (ladysthumb smartweed, and hairy beggarticks (Bidens pilosa), were planted into a silt loam soil and treated preemergence with test chemicals formulated in a non-phytotoxic solvent mixture which included a surfactant.
At the same time, plants from these crop and weed species and also horseweed (Canada horseweed, Conyza canadensis), waterhemp_RES1, (ALS & Triazine resistant common waterhemp, Amaranthus rudis), and waterhemp_RES2, (ALS & HPPD resistant common waterhemp, Amaranthus rudis) were planted in pots containing Redi-Earth® planting medium (Scotts Company, 14111 Scottslawn Road, Marysville, Ohio 43041) comprising spaghnum peat moss, vermiculite, wetting agent and starter nutrients were treated with postemergence applications of test chemicals formulated in the same manner. Plants ranged in height from 2 to 18 cm for postemergence treatments (1- to 4-leaf stage). Treated plants and controls were maintained in a greenhouse for 14 to 21 days, after which time all species were compared to controls and visually evaluated. Plant response ratings, summarized in Table E, are based on a scale of 0 to 100 where 0 is no effect and 100 is complete control. A dash (-) response means no test result.

SMILES	Bermudagrass plant response rating (bermudagrass [1]; 62 g ai/ha)	Bermudagrass plant response rating (bermudagrass [1]; 125 g ai/ha)	Bermudagrass plant response rating (bermudagrass [1]; 250 g ai/ha)	Plant response rating, Bermudagrass (bermudagrass [1])	Plant response rating (0 to 100), Cupgrass, Woolly (cupgrass, woolly [2]; 125 g ai/ha)	Plant response rating (0 to 100), Cupgrass, Woolly (cupgrass, woolly [2]; 250 g ai/ha)	Plant response rating, Cupgrass, Woolly (cupgrass, woolly [2]; 31 g ai/ha, 13 to 15 days)	Plant response rating, Cupgrass, Woolly (cupgrass, woolly [2]; 62 g ai/ha)	Goosegrass plant response rating (goosegrass; 62 g ai/ha)	Goosegrass plant response rating (goosegrass; 125 g ai/ha)	Goosegrass plant response rating (goosegrass; 250 g ai/ha)	Plant response rating, Goosegrass (goosegrass)	Plant response rating (0 to 100), Bermudagrass (bermudagrass [3]; 125 g ai/ha)	Plant response rating (0 to 100), Bermudagrass (bermudagrass [3]; 250 g ai/ha)	Plant response rating, Bermudagrass (bermudagrass [3]; 31 g ai/ha, 13 to 15 days)	Plant response rating, Bermudagrass (bermudagrass [3]; 62 g ai/ha)	Foxtail, Green plant response rating (foxtail, green; 62 g ai/ha)	Foxtail, Green plant response rating (foxtail, green; 125 g ai/ha)	Foxtail, Green plant response rating (foxtail, green; 250 g ai/ha)	Plant response rating, Foxtail, Green (foxtail, green)	further results
Clc1cnc(Oc2ccccc2-n2cc(Br)cn2)nc1 [Compound 7, 2-[2-(4-bromo-1H-pyrazol-1-yl)phenoxy]-5-chloropyrimidine]	100	100	100	85	25	25	10	20	85	95	100	65	15	70	0	5	90	90	95	50	Plant response rating (0 to 100), Deadnettle (deadnettle; 125 g ai/ha): 98; Plant response rating (0 to 100), Deadnettle (deadnettle; 250 g ai/ha): 100; Plant response rating, Deadnettle (deadnettle; 31 g ai/ha, 13 to 15 days): 85; Plant response rating, Deadnettle (deadnettle; 62 g ai/ha): 98; Cupgrass, Woolly plant response rating (cupgrass, woolly [4]; 62 g ai/ha): 55; Cupgrass, Woolly plant response rating (cupgrass, woolly [4]; 125 g ai/ha): 98; Cupgrass, Woolly plant response rating (cupgrass, woolly [4]; 250 g ai/ha): 98; Plant response rating, Cupgrass, Woolly (cupgrass, woolly [4]): 15; Cocklebur plant response rating (cocklebur; 62 g ai/ha): 5; Cocklebur plant response rating (cocklebur; 125 g ai/ha): 5; Cocklebur plant response rating (cocklebur; 250 g ai/ha): 5; Plant response rating, Cocklebur (cocklebur): 0; Surinam Grass plant response rating (surinam grass; 62 g ai/ha): 5; Surinam Grass plant response rating (surinam grass; 125 g ai/ha): 30; Surinam Grass plant response rating (surinam grass; 250 g ai/ha): 85; Plant response rating, Surinam Grass (surinam grass): 0
Fc1cnc(Oc2ccccc2-n2cc(Br)cn2)nc1 [Compound 10, 2-[2-(4-bromo-1H-pyrazol-1-yl)phenoxy]-5-fluoropyrimidine]	–	–	–	–	5	15	0	5	–	–	–	–	5	50	0	5	–	–	–	–	Plant response rating (0 to 100), Deadnettle (deadnettle; 125 g ai/ha): 80; Plant response rating (0 to 100), Deadnettle (deadnettle; 250 g ai/ha): 95; Plant response rating, Deadnettle (deadnettle; 31 g ai/ha, 13 to 15 days): 50; Plant response rating, Deadnettle (deadnettle; 62 g ai/ha): 60
FC(F)(F)c1cnn(-c2ccccc2Oc2ncc(Cl)cn2)c1 [Compound 16]	98	98	98	95	20	30	5	15	98	100	100	75	50	55	10	15	90	90	90	90	Cupgrass, Woolly plant response rating (cupgrass, woolly [4]; 62 g ai/ha): 90; Cupgrass, Woolly plant response rating (cupgrass, woolly [4]; 125 g ai/ha): 98; Cupgrass, Woolly plant response rating (cupgrass, woolly [4]; 250 g ai/ha): 98; Plant response rating, Cupgrass, Woolly (cupgrass, woolly [4]): 75; Cocklebur plant response rating (cocklebur; 62 g ai/ha): 5; Cocklebur plant response rating (cocklebur; 125 g ai/ha): 5; Cocklebur plant response rating (cocklebur; 250 g ai/ha): 20; Plant response rating, Cocklebur (cocklebur): 0; Surinam Grass plant response rating (surinam grass; 62 g ai/ha): 100; Surinam Grass plant response rating (surinam grass; 125 g ai/ha): 100; Surinam Grass plant response rating (surinam grass; 250 g ai/ha): 100; Plant response rating, Surinam Grass (surinam grass): 25
FC(F)(F)c1cnn(-c2ccccc2Oc2ncc(Br)cn2)c1 [Compound 18, 5-bromo-2-[2-[4-(trifluoromethyl)-1H-pyrazol-1-yl]phenoxy]pyrimidine]	98	98	100	95	–	–	–	–	85	95	100	75	–	–	–	–	90	90	90	85	Cupgrass, Woolly plant response rating (cupgrass, woolly [4]; 62 g ai/ha): 55; Cupgrass, Woolly plant response rating (cupgrass, woolly [4]; 125 g ai/ha): 98; Cupgrass, Woolly plant response rating (cupgrass, woolly [4]; 250 g ai/ha): 100; Plant response rating, Cupgrass, Woolly (cupgrass, woolly [4]): 40; Cocklebur plant response rating (cocklebur; 62 g ai/ha): 0; Cocklebur plant response rating (cocklebur; 250 g ai/ha): 15; Surinam Grass plant response rating (surinam grass; 62 g ai/ha): 30; Surinam Grass plant response rating (surinam grass; 125 g ai/ha): 100; Surinam Grass plant response rating (surinam grass; 250 g ai/ha): 100; Plant response rating, Surinam Grass (surinam grass): 20
N#Cc1cccc(Oc2ncc(F)cn2)c1-n1cc(Cl)cn1 [Compound 73]	–	–	–	–	–	–	–	–	–	–	–	–	–	–	–	–	–	–	–	–	Smartweed plant response rating (smartweed; 16 g ai/ha): 0; Smartweed plant response rating (smartweed; 31 g ai/ha): 0; Smartweed plant response rating (smartweed; 62 g ai/ha): 20; Plant response rating, Smartweed (smartweed; 125 g ai/ha): 98; Plant response rating, Smartweed (smartweed; 250 g ai/ha): 98
FC(F)c1cccc(Oc2ncc(Cl)cn2)c1-n1cc(Br)cn1 [Compound 194, 2-[2-(4-bromo-1H-pyrazol-1-yl)-3-(difluoromethyl)phenoxy]-5-chloropyrimidine]	–	–	–	–	–	–	–	–	–	–	–	–	–	–	–	–	–	–	–	–	Smartweed plant response rating (smartweed; 31 g ai/ha): 0; Smartweed plant response rating (smartweed; 62 g ai/ha): 90
